From PMC11381239, “Endocannabinoid regulation of inward rectifier potassium (Kir) channels” (Frontiers in Pharmacology, 2024) come the findings set out here.

Common to all, as to experiment: two-electrode voltage clamp, slope conductance Gmax
Type in all cases: cell-based

For assay [1], the target named is T1, Kir2.1 (Homo sapiens, UniProt P63252).
T1 construct: gene KCNJ2; full-length human Kir2.1 cDNA in pcDNA3.1, RNA expressed in Xenopus laevis oocytes; homotetramer
T1 sequence (P63252 1-427): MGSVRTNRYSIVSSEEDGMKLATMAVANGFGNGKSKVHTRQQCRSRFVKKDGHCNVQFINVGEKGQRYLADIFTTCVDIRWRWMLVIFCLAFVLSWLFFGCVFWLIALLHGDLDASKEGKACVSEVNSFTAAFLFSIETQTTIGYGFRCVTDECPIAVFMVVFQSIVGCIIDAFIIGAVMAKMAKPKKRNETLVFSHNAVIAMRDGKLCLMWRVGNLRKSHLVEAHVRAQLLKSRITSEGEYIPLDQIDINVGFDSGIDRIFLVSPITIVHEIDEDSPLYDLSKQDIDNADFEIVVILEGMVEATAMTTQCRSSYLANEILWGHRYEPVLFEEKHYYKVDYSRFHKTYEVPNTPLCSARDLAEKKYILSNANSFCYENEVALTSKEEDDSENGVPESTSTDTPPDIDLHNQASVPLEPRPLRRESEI
The settings on record: for Emax (%): maximal increase in Gmax, vehicle (ethanol) control in same table. From the text:
two-electrode voltage clamp, slope conductance Gmax on Kir2.1

For assay [2], the target named is T2, WT:G144S Kir2.1 (Homo sapiens, UniProt P63252, G144S).
T2 construct: gene KCNJ2; WT Kir2.1 co-expressed 1:1 with LQT7 mutant G144S Kir2.1 in Xenopus laevis oocytes; mixed tetramers, exact subunit stoichiometry not fixed
T2 sequence (P63252 1-427): T1 sequence (P63252 1-427)
T2 sequence (P63252 1-427 G144S): T1 sequence (P63252 1-427) with G144S

The target in assay [3] is T3, Kir4.1 (Rattus norvegicus, UniProt P49655).
T3 construct: gene Kcnj10; full-length rat Kir4.1 cDNA in pcDNA3.1, RNA expressed in Xenopus laevis oocytes; homotetramer
T3 sequence (P49655 1-379): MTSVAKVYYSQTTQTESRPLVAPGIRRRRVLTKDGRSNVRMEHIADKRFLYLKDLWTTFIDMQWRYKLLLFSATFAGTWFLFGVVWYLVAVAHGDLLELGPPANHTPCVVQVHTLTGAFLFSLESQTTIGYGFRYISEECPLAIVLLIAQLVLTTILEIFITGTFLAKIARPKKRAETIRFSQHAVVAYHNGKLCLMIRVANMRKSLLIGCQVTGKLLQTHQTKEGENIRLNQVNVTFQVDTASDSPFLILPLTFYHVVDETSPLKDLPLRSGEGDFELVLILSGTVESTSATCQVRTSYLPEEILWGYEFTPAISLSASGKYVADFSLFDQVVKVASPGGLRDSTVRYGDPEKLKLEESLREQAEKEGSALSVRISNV
From the text: two-electrode voltage clamp, slope conductance Gmax on Kir4.1

[4] abbreviates: 89 mM KCl bath, pH 7.4, room temperature.

Where a chain is given by its changes, count along the chain named. Where two headings read alike, the source gives them in different places.

One may read the EC50 as the concentration that produces a half-maximal response.

`CCCCC/C=C\C/C=C\CCCCCCCC(=O)NCCO` [LEA]: it took 29 ± 1 µM to reach a half-maximal effect in assay [1] (EC50).

With `CCCCCCCC/C=C\CCCCCCCC(=O)NCCO` [OEA], the EC50 in assay [1] is 9.2 ± 0.9 µM.

Take `CCCCCCCCCCCCCCCC(=O)OC(CO)CO` [2-PG]: the EC50 in assay [2] amounted to 11.7 ± 1 µM; in assay [1], 12.7 ± 2 µM; in assay [3], 12.4 ± 0.7 µM.

In the case of oxy-AEA, the concentration for a half-maximal effect (EC50) in assay [1] (activation, 89 mM KCl bath, pH 7.4, room temperature, mode: indirect via membrane according to authors) was 25.3 ± 1.1 µM.

For `CCCCC/C=C\C/C=C\C/C=C\C/C=C\CCCC(=O)N[C@@H](CO)C(=O)O` [AS], the “Emax (%)” value in assay [1] (setting [4]) is 1.0 ± 0.1%.

The compound `CCCCC/C=C\C/C=C\C/C=C\CCCCC(=O)NCCO` [ϒLnEA] registered an EC50 in assay [1] of 36.8 ± 3.8 µM.

The compound `CCCCCCCC/C=C\CCCCCCCCCCCCCC(=O)NCCO` [NEA] gave an EC50 in assay [1] of 23.3 ± 2.1 µM.

Turning to `CCCCC/C=C\C/C=C\C/C=C\C/C=C\CCCC(=O)OC(CO)CO` [2-AG], in assay [1], the EC50 worked out at 25.5 ± 1.1 µM.

Turning to `CCCCC/C=C\C/C=C\C/C=C\C/C=C\CCCC(=O)NCC(=O)O` [NAGly], the EC50 in assay [1] was 27.7 ± 2.8 µM.

In assay [1], `CCCCCCCCCCCCCCCCCC(=O)NCCO` [SEA] came in with an EC50 of 10.2 ± 4.9 µM.

Consider `CCCCCC/C=C\CCCCCCCC(=O)NCCO` [POEA], for which the response in assay [1] was half-maximal at 9.3 ± 0.7 µM (EC50).

On to `CCCCC/C=C\C/C=C\C/C=C\C/C=C\CCCCCC(=O)NCCO` [DEA], for which the EC50 in assay [1] came out at 32 ± 3.9 µM.

With `CCCCCCCCCCCCCCCCCCCC(=O)NCCO` [ArEA], the results for the 50% effective concentration (EC50) in assay [2], in assay [1] and in assay [3] were 30.7 ± 3.4 µM, 12.6 ± 4.1 µM and 4.5 ± 3.9 µM, respectively.

For the compound `CCCCC/C=C\C/C=C\CCCCCCCC(=O)OC(CO)CO` [2-LG], the “Emax (%)” value in assay [1] (setting [4]) was 5.4 ± 0.3%.

`CC/C=C\C/C=C\C/C=C\CCCCCCCC(=O)NCCO` [αLnEA] registered an EC50 in assay [1] of 24.5 ± 4.2 µM.

For `CCCCC/C=C\C/C=C\C/C=C\C/C=C\CCCC(=O)NCCO` [AEA], in assay [1] (setting [4]), the “Emax (%)” value is reported as 5.3 ± 1.3%.

As for `CCCCC/C=C\C/C=C\C/C=C\C/C=C\CCCC(=O)OCC(O)CO` (stereo not drawn) [1-AG], the response in assay [1] was half-maximal at 20 ± 0.9 µM (EC50).
